Results published in patent publication US20030134893A1, “Combination chemotherapy” (priority 1999, published 2003).
Several values for one entry are separate records, joined by “and”; a condition that tells them apart may be missing. Equal entries are not always repeated. Where two headings read alike, the source gives them in different places. Marks after values point to notes of the source that are not given here.

Assays:
solid tumor = experiment: Phase 1 dose-escalation clinical study of CI-994 (solid tumor); format: in vivo, human
Experimental: In one such study, patients were treated using a dose-escalation scheme that increased both the daily dose and the duration of treatment. The majority of patients had received extensive prior chemotherapy. The maximum-tolerated dose (MTD) was 15 mg/m^2/day when the duration of treatment was 14 consecutive days. To allow more prolonged treatment, lower doses were studied. Using a schedule of 8 weeks of continuous daily therapy, followed by a 2-week ‘drug holiday’, the MTD was 8 mg/m^2/day. […] Blood counts tended to stabilize even with continued treatment and to recover quickly when treatment was stopped.

[1] = Route of elimination of radiolabeled drug, monkeys; format: in vivo; settings: within 24 hours
Experimental: (§1) Mass balance/route of elimination studies have not been conducted in humans. Animal studies indicate that the principal route of elimination is via renal excretion, with 80% and 62% of radiolabeled drug appearing in the urine of monkeys and rats, respectively, within 24 hours.

in vivo [2] = settings: female, BALB/C, mouse, po
[3] = tested on: LC-12 squamous cell lung carcinoma tumor; experiment: in vivo
Experimental: (§2) Each agent was also evaluated alone, and treatment groups were compared to untreated controls.

in vivo [4] = settings: female, mouse, in vivo
Experimental: as §2

[5] = Pharmacokinetics of oral CI-994 in the solid tumor Phase 1 study, incl. food effect; format: in vivo, human; settings: fasted patients
[6] = tested on: relapsed acute leukemia or other hematologic malignancy; experiment: Phase 1 study of CI-994, once daily high-dose 5-day schedule; format: in vivo
Experimental: An additional Phase 1 study was conducted in patients with relapsed acute leukemia or other hematologic malignancy using a once daily high-dose 5-day dosing schedule. The MTD was 135 mg/m^2/day. […] Hematologic toxicities cannot be assessed in this patient population.

[7] = Route of elimination of radiolabeled drug, rats; format: in vivo; settings: within 24 hours
Experimental: as §1

[8] = tested on: nonsmall cell lung cancer, renal cell cancer and other cancers; experiment: Phase 2 program with CI-994 as a single agent
[9] = tested on: LC-12 Mouse Lung Carcinoma
in vivo [10] = settings: female, mouse, iv
Experimental: The test mice were obtained from Charles River Laboratories, Wilmington, Mass. On Day 0 of the test, each mouse was surgically implanted (subcutaneously) with a fragment of LC-12 squamous cell lung carcinoma tumor weighing approximately 30 to 60 mg. The tumor fragments were implanted using a 12 gauge trocar. The mice were weighed weekly, and tumor size (width and length in mm) were measured two times each week with standard calipers. Tumor mass for each animal was calculated according to the formula: [formula]
where “a” is width of the tumor in mm, and “b” is the length in mm. […] Antitumor activity was assessed according to four parameters: (1) partial tumor response (PR); (2) complete tumor response (CR); (3) tumor-free survival (TF); and (4) tumor growth delay (TL). Tumor growth delay is expressed as a T−C value, where T is the median days required for the treatment group tumors to reach a predetermined size (e.g., 750 mg), and C is the median days for the control group tumors to reach this size. From the tumor growth delay value, the net log10 tumor cell kill is calculated as follows:
where Td is the days for the tumor mass to double, and Rx is the total days of treatment. […] The conversion of the T−C values to log10 cell kill is possible because the Td for tumors regrowing after treatment is approximately the same as that for untreated control mice. […]

[11] = CI-994 15 mg/kg/day Days 11-15,18-22,25-29
[12] = CI-994 7.5 mg/kg/day oral Days 8-12,15-19, 22-26
[13] = CI-994 15.0 mg/kg/day oral Days 8-12,15-19, 22-26
[14] = CI-994 30.0 mg/kg/day oral Days 8-12,15-19, 22-26
[15] = CI-994 60.0 mg/kg/day oral Days 8-12,15-19, 22-26
[16] = CI-994 60.0 mg/kg/day oral Days 8-12,15-19, 22-26, 60 mg/kg/day
[17] = Carboplatin 30 mg/kg/day Days 11-15
[18] = Carboplatin 15 mg/kg/day ip Days 8-12
[19] = Carboplatin 20 mg/kg/day ip Days 8-12
[20] = Paclitaxel 15 mg/kg/day Days 11-15

CC(=O)Nc1ccc(C(=O)Nc2ccccc2N)cc1 [CI-994, 4-acetylamino-N-(2′-aminophenyl)-benzamide]
MTD (solid tumor; 8 weeks of continuous daily therapy, followed by a 2-week drug holiday, patients): 8 mg/m^2/day | maximum-tolerated dose (MTD) (solid tumor; duration of treatment 14 consecutive days, patients): 15 mg/m^2/day | cumulative toxicity (solid tumor; human, in vivo): no evidence of cumulative toxicity | dose-limiting toxicity (solid tumor; human, in vivo): thrombocytopenia or neutropenia | other toxicities (solid tumor; human, in vivo): nausea, vomiting, diarrhea, anorexia, fatigue, mucositis, headache, dehydration, and increases in liver and renal function test values | time of occurrence of the dose-limiting toxicity after the start of therapy (solid tumor; human, in vivo): ≤ 1 month | responses (solid tumor; patients, majority with extensive prior chemotherapy): one partial response in a heavily pretreated patient with NSCLC and a minor response in one patient each with renal cell cancer and NSCLC | radiolabeled drug appearing in the urine [1]: 80% | MTD at 15 days (in vivo [2]): 60 mg/kg | CR (complete response) [3, 11]: 0 | Net log10 Kill [3, 11]: −1.3 log10 | No. Tumor Free (40 days after the last treatment) [3, 11]: 0 | Nonspecific Deaths [3, 11]: 0/10 | PR (partial response) [3, 11]: 0 | T-C (days to reach 750 mg) [3, 11]: 4.6 days | complete response rate ([3]; CI-994 60 mg/kg/day (MTD)): 30% | T-C (days to reach 750 mg) ([3]; CI-994 60 mg/kg/day Days 11-15,18-22,25-29): 16.2 days | % Weight Change ([3]; mouse, in vivo, 15 mg/kg/day): +4.0% | % Weight Change ([3]; mouse, in vivo, 30 mg/kg/day): 13.4% | % Weight Change ([3]; mouse, in vivo, 60 mg/kg/day): 16.2% | MTD (in vivo [4]; BALB/C): 60 mg/kg/day | dose dependence of terminal elimination half-life and apparent clearance rate [5]: independent of the dose administered | maximum plasma concentrations with increasing dose levels [5]: less than dose-proportional | time to maximum blood level after ingestion ([5]; preliminary results): 1 to 2 h | half-life ([5]; human, plasma, preliminary results, read-out: terminal elimination half-life (converted)): ~15 h | dose-limiting toxicity ([6]; in vivo): acute CNS toxicity manifested as sedation and somnolence | other adverse events ([6]; in vivo): nausea, vomiting, hypotension resulting from dehydration, hypocalcemia, headache, and in one patient each, acute pancreatitis, a pyramidal syndrome characterized by hyperreflexia and bilateral Babinski reflexes, and sepsis | MTD ([6]; once daily high-dose 5-day dosing schedule, patients): 135 mg/m^2/day | tumor lysis syndrome ([6]; patients with AML): Two patients with AML developed tumor lysis syndrome, resulting in one death | radiolabeled drug appearing in the urine [7]: 62% | clinical benefit ([8]; 8 mg/m^2 given orally daily): Clinical benefit has been reported in patients with renal cell cancer | dose-limiting toxicity ([8]; 8 mg/m^2 given orally daily): Thrombocytopenia | infrequent neurologic adverse events ([8]; 8 mg/m^2 given orally daily): paresthesias, confusion, and hallucinations | objective responses ([8]; 8 mg/m^2 given orally daily): Objective responses have been seen in patients with nonsmall cell lung cancer | dose increases tolerated by some patients ([8]; oral daily, starting from 8 mg/m^2): 10 mg/m^2 | CR (complete response) [9, 12]: 2/10 | Net Log10 Kill [9, 12]: −1.2 log10 | No. Tumor Free (Day 71) [9, 12]: 2/10 | No. of Deaths [9, 12]: 0/10 | PR (partial response) [9, 12]: 0/10 | T-C (days to reach 750 mg) [9, 12]: 1.0 days | CR (complete response) [9, 13]: 1/10 | Net Log10 Kill [9, 13]: −1.3 log10 | No. Tumor Free (Day 71) [9, 13]: 1/10 | No. of Deaths [9, 13]: 0/10 | PR (partial response) [9, 13]: 0/10 | T-C (days to reach 750 mg) [9, 13]: 0.9 days | complete responses ([9]; CI-994 30 mg/kg): 20% | partial responses ([9]; CI-994 30 mg/kg): 10% | CR (complete response) [9, 14]: 2/10 | Net Log10 Kill [9, 14]: −0.7 log10 | No. Tumor Free (Day 71) [9, 14]: 2/10 | No. of Deaths [9, 14]: 0/10 | PR (partial response) [9, 14]: 1/10 | T-C (days to reach 750 mg) [9, 14]: 8.2 days | complete responses ([9]; CI-994 60 mg/kg (MTD)): 50% | CR (complete response) [9, 15]: 5/10 | No. of Deaths [9, 15]: 0/10 | T-C (days to reach 750 mg) [9, 15]: 19.4 days | No. Tumor Free (Day 71) [9, 16]: 5/10 | PR (partial response) [9, 16]: no partial responses and 0/10 | antitumor activity ([9]; lower CI-994 doses (below 30 mg/kg)): Little antitumor activity | % Weight Change ([9]; mouse, in vivo, po, 7.5 mg/kg/day): +4.4% | % Weight Change ([9]; mouse, in vivo, po, 15 mg/kg/day): +4.9% | % Weight Change ([9]; mouse, in vivo, po, 30 mg/kg/day): +2.0% | % Weight Change ([9]; mouse, in vivo, po, 60 mg/kg/day): −1.5%

N.N.O=C([O-])C1(C(=O)[O-])CCC1.[Pt+2] [Carboplatin, carboplatin, reference compound]
% Weight Change [3, 17]: −3.9% | Net log10 Kill [3, 17]: 0.3 log10 | No. Tumor Free (40 days after the last treatment) [3, 17]: 0 | Nonspecific Deaths [3, 17]: 0/10 | T-C (days to reach 750 mg) [3, 17]: 6.9 days | MTD of carboplatin ([3]; given alone): 30 mg/kg | % Weight Change [9, 18]: −2.0% | CR (complete response) [9, 18]: 1/10 | Net Log10 Kill [9, 18]: +0.3 log10 | No. Tumor Free (Day 71) [9, 18]: 0/9 | No. of Deaths [9, 18]: 1/10^h | PR (partial response) [9, 18]: no partial responses and 0/10 | T-C (days to reach 750 mg) [9, 18]: 8.3 days | % Weight Change [9, 19]: −5.5% | CR (complete response) [9, 19]: 2/10 | Net Log10 Kill [9, 19]: +0.1 log10 | No. Tumor Free (Day 71) [9, 19]: 2/10 | No. of Deaths [9, 19]: 0/10 | PR (partial response) [9, 19]: 1/10 | T-C (days to reach 750 mg) [9, 19]: 5.9 days | complete responses ([9]; carboplatin 20 mg/kg (MTD)): 20% | partial responses ([9]; carboplatin 20 mg/kg (MTD)): 10% | complete responses ([9]; carboplatin at 75% of its MTD (15 mg/kg)): Ten percent | MTD of carboplatin ([9]; ip, once a day, for 5 days): 20 mg/kg

CC(=O)O[C@H]1C(=O)[C@@]2(C)[C@H]([C@H](OC(=O)c3ccccc3)[C@]3(O)C[C@H](OC(=O)[C@H](O)[C@@H](NC(=O)c4ccccc4)c4ccccc4)C(C)=C1C3(C)C)[C@]1(OC(C)=O)CO[C@@H]1C[C@@H]2O [Taxol, paclitaxel, reference compound]
Net log10 Kill [3, 20]: 0.0 log10 | No. Tumor Free (40 days after the last treatment) [3, 20]: 0 | Nonspecific Deaths [3, 20]: 0/10 | T-C (days to reach 750 mg) [3, 20]: 3.7 days | MTD (in vivo [4]; 15 mg/kg): 15 mg/kg | MTD (in vivo [10]): 20 mg/kg/day
